Assay results taken from patent US8354522B2, “Immunostimulatory oligoribonucleotides” (Coley Pharmaceutical GmbH, priority 2005, dated 2013).

Columns and labels:
CD123+ purified pDC = experiment: CD86 surface marker expression upon human pDC stimulation (FACS); type: cell-based; conditions: 1 μM ORN complexed to 25 μg/ml DOTAP, 16 h
Description: (§1) FIG. 10 is a series of graphs showing surface marker expression upon human pDC stimulation with AU-rich or GU-rich ORN. CD123+ purified pDC (FIGS. 10a and 10b) or isolated monocytes (FIG. 10c) were incubated with 1 μM ORN complexed to 25 μg/ml DOTAP or DOTAP alone (FIG. 10a) or indicated amounts of ORN complexed to DOTAP or DOTAP alone (FIGS. 10b-10c). After 16 h cells were harvested and stained with CD123, CD11c and HLA-DR antibodies (FIGS. 10a and 10b) or CD14 and CD19 (FIG. 10c). Cell surface marker activation was measured by CD86 (FIGS. 10a and 10b) or CD80 (FIG. 10c) expression. […] FIG. 10b is a graph illustrating that CD86 surface marker expression upon human pDC stimulation is dose-dependent.
(§2) CD123+ purified pDC (FIGS. 10a and 10b) or isolated monocytes (FIG. 10c) were incubated with 1 μM ORN complexed to 25 μg/ml DOTAP or DOTAP alone (FIG. 10a) or indicated amounts of ORN complexed to DOTAP or DOTAP alone (FIGS. 10b-10c). After 16 h cells were harvested and stained with CD123, CD11c and HLA-DR antibodies (FIGS. 10a and 10b) or CD14 and CD19 (FIG. 10c). […] This activation was determined to be dose-dependent (FIG. 10b).

human TLR8 = molecular target: T1, human TLR8 (Homo sapiens, UniProt Q9NR97); experiment: NFκB-luciferase reporter in HEK-293 cells stably transfected with human TLR8; type: cell-based; conditions: HEK-293 with human TLR8, ORN complexed to DOTAP, 16 hours
T1 construct: expressed in transfected cells
T1 sequence (Q9NR97 27-1041): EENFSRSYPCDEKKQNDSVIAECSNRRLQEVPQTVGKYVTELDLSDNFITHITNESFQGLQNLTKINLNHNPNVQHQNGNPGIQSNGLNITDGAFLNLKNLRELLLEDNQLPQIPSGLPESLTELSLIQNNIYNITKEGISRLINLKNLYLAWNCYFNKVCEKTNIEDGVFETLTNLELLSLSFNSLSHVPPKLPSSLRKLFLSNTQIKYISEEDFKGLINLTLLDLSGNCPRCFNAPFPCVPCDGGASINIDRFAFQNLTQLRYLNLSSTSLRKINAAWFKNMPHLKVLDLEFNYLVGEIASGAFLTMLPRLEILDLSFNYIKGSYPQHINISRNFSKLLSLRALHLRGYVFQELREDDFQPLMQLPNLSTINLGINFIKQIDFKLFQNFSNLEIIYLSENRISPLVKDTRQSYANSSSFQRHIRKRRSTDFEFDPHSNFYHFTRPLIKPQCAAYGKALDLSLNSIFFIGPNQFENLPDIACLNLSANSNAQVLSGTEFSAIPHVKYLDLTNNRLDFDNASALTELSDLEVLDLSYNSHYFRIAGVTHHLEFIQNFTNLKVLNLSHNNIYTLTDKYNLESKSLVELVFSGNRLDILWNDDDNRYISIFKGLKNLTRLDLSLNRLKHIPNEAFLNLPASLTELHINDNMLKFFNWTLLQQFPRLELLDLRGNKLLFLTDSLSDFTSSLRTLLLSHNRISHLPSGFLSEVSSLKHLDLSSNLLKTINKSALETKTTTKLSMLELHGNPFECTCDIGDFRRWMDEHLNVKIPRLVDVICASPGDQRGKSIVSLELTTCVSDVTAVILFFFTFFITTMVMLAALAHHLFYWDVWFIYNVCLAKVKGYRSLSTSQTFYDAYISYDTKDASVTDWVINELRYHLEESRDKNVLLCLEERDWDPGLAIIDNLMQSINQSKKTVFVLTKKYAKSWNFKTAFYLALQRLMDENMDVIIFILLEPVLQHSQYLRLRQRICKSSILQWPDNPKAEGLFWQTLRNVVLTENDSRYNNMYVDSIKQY
Description: Stable-transfected HEK-293 cells with NFκB-luciferase read out reporter and human TLR8 were stimulated for 16 hours with indicated ORN. After 16 hours the supernatants were removed, the cells lysed and the luciferase activity or cytokine level was measured. FIGS. 9a and 9b show fold induction of NFκB-luciferase after stimulus.
Unresponsive HEK-293 cells were stably transfected with human TLR3 or TLR8 expression plasmid and NFκB-luciferase reporter gene construct. Cells were incubated with the indicated ORN sequences (10 μM complexed to 50 μg/ml DOTAP) or control stimuli (10 μM R-848, 50 μg/ml polyIC, 3.3 μM ODN 10103 or 50 μg/ml DOTAP) for 16 hours. NFκB-activation was measured by assaying luciferase activity. Results are given as fold induction above background (medium). One representative experiment of 6 independent repetitions is presented (FIG. 9a).
Stable-transfected HEK-293 cells expressing human TLR8 were stimulated with indicated concentrations of ORN complexed to DOTAP (50 μg/ml->1/3 dilution) or DOTAP alone (50 μg/ml->1/3 dilution) for 16 hours. NFκB activation was measured by assaying luciferase activity. Results are given as fold induction above background (medium). […]
Unresponsive HEK-293 cells were stably transfected with human TLR8 expression plasmid and NFκB-luciferase reporter gene construct. […] NFκB-activation was measured by assaying luciferase activity. […]

CD14-positive cell = experiment: CD80 surface marker expression upon CD14-positive cell stimulation (FACS); type: cell-based; conditions: human PBMC (data not shown) and CD14-positive cells, ORN complexed to DOTAP, 16 h
Description: as §1, §2

[1] = system: isolated monocytes and mDC; experiment: TNF-alpha and IL-12p40 production upon isolated monocytes and mDC stimulation; type: cell-based, human; conditions: 0.5 μM ORN complexed to 10 μg/ml DOTAP, 16 h
Description: FIG. 2 is a set of bar graphs depicting ORN induced cytokine production upon isolated pDC (FIG. 2a), monocytes (FIG. 2b) and mDC (FIG. 2c) stimulation. Cells were stimulated with 0.5 μM ORN complexed to 10 μg/ml DOTAP, 0.5 μM CpG ODN or DOTAP or media alone and IFN-alpha (FIG. 2a), TNF-alpha […] and IL-12p40 (FIG. 2c) were measured.
A similar assay testing different ORN sequences was performed using isolated pDC, monocytes and mDC stimulation. Cells were stimulated with 0.5 μM ORN complexed to 10 μg/ml DOTAP, 0.5 μM CpG ODN or DOTAP or media alone. After 16 h the supernatants were harvested and IFN-alpha, TNF-alpha and IL-12p40 levels were measured by ELISA.

Substance | CD86 surface marker expression (CD123+ purified pDC) | human TLR8 signaling (NFκB-luciferase fold induction) (human TLR8) | CD80 surface marker expression (CD14-positive cell) | IL-12p40 production (in words) [1] | TNF-alpha production (in words) [1]
U*U*A*U*U*A*U*U*A*U*U*A*U*U*A*U*U*A*U*U (UUAUUAUUAUUAUUAUUAUU; chemistry not fully specified) [SEQ ID NO: 13] | very little CD86 activation | Stimulate Specific Human TLR8 Signaling in a Dose Dependent Manner | no difference in CD80 surface marker expression | clear TNF-alpha and IL-12p40 production | clear TNF-alpha and IL-12p40 production
U*U*G*U*U*G*U*U*G*U*U*G*U*U*G*U*U*G*U*U (UUGUUGUUGUUGUUGUUGUU; listed as RNA, chemistry not fully specified) [SEQ ID NO: 21] | significant CD86 activation | Stimulate Specific Human TLR8 Signaling in a Dose Dependent Manner | no difference in CD80 surface marker expression | clear TNF-alpha and IL-12p40 production | clear TNF-alpha and IL-12p40 production
